{"source": "patent US20070148722A1", "about": "“Method for determining the concentration of thrombin inhibitors” (priority 1999, published 2007)", "origin": "cited, not measured here", "target": "meizothrombin (Homo sapiens, UniProt P00734)", "conditions": "theoretical background statement; affinity to atypical intermediate meizothrombin", "data": [{"substance": "hirudin", "values": [{"measurement": "Ki", "result": "> 100", "unit": "pM"}]}]}
